Measurements from patent US10173968B2, “Bishydrazone-based antifungal agents” (University of Kentucky Research Foundation, priority 2016, dated 2019).
Where two headings read alike, the source gives them in different places.

Tests used:
A. baumannii ATCC 19606 = assay: Antibacterial MIC, double-dilution method; assay type: cell-based; settings: Acinetobacter baumannii, ATCC19606, strain E, Gram-negative, read-out: MIC
Procedure, shortened: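 The lowest inhibitory concentration is reported from a twofold dilution series, after an initial single-concentration screen with every compound at 500 μM.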

[1] = tested on: L. monocytogenes ATCC 19115 (strain B); assay type: cell-based, Listeria monocytogenes; settings: up to 15 passages
Description: (§1) The bacteria were grown in MH broth at 37° C. for these experiments. […] The resulting cultures were diluted 1:1000 and grown until the culture reached ˜300,000 cfu/mL. That culture was then further diluted 1:1000 and used to determine the next round of MIC values.

VRE (strain D) = assay type: cell-based, enterococcus; settings: up to 15 passages
Description: as §1

[2] = tested on: P. aeruginosa ATCC 27853 (strain I); assay type: cell-based; settings: up to 15 passages
Description: as §1

hERG channel = hERG channel (Homo sapiens, UniProt Q12809); assay: in vitro; settings: pH 7.4
Description: Assays were conducted in duplicate, and three independent assays were performed for each compound that was evaluated. Cell membrane suspension (5 μg) was added to duplicate tubes containing assay buffer (50 mM Tris, 10 mM KCl, and 1 mM MgCl2, pH 7.4), 25 μL of a single concentration of analogue (a concentration range of 10 nM-100 μM was employed for each experiment), and 25 μL of [^3H]dofetilide (5 nM, final concentration) for an assay volume of 250 μL. Nonspecific binding was assessed in the presence of 1 mM amitriptyline. Binding occurred for 60 min at 25° C. and was terminated by rapid filtration through Whatman GF/B filters, which were pre-soaked in 0.5% PEI for 2 h. Filters were washed three times with ˜1 mL of ice-cold assay buffer. Radioactivity retained by the filters was determined by liquid scintillation counting by using a Tri-Carb 2100TR liquid scintillation analyzer (PerkinElmer Life and Analytical Sciences, Boston, Mass.).

MRSA (strain C) = assay type: cell-based, Staphylococcus aureus; settings: up to 15 passages
Description: as §1

C. albicans ATCC 10231 [3] = assay: Intracellular ROS production, DCFH-DA fluorescence assay; assay type: cell-based, Candida albicans; settings: at 1× and 2× MIC values, 1 h at 35° C.
Description: We used the 2′,7′-dichlorodihydrofluorescein diacetate (DCFH-DA) dye as a probe to measure the production of ROS in yeast cells upon treatment with our compounds. DCFH-DA can easily cross the cell membranes and be hydrolyzed by cellular esterases to the non-fluorescent 2′,7′-dichlorodihydrofluorescein (DCFH), which can further be oxidized to the highly fluorescent 2′,7′-dichlorofluorescein (DCF) by the intracellular ROS. Five mL of RPMI 1640 medium were inoculated using a single colony of C. albicans ATCC 10231 (strain A) in a Falcon tube and grown overnight at 35° C. at 200 rpm. The overnight culture was diluted by adding 200 μL of yeast cells to 800 μL of the same medium. […] H2O2 at 1 mM was also used as a positive control. Cells were centrifuged and washed twice with PBS buffer (pH 7.2). Cells were resuspended in the same buffer and incubated with DCFH-DA (20 μg/mL) for 30 min in the dark. Afterwards, cells were centrifuged and washed with PBS buffer to remove excess DCFH-DA. Glass slides with 10-15 μL of each mixture were prepared and observed in bright field and fluorescence modes (FITC filter set, excitation and emission wavelengths of 488 and 512 nm, respectively) using a Zeiss Axovert 200M fluorescence microscope (FIG. 3).

C. albicans ATCC 10231 [4] = assay type: cell-based, Candida albicans; settings: repeated treatments with sub-MIC drug concentrations

hERG channel, sequence (Q12809 whole entry): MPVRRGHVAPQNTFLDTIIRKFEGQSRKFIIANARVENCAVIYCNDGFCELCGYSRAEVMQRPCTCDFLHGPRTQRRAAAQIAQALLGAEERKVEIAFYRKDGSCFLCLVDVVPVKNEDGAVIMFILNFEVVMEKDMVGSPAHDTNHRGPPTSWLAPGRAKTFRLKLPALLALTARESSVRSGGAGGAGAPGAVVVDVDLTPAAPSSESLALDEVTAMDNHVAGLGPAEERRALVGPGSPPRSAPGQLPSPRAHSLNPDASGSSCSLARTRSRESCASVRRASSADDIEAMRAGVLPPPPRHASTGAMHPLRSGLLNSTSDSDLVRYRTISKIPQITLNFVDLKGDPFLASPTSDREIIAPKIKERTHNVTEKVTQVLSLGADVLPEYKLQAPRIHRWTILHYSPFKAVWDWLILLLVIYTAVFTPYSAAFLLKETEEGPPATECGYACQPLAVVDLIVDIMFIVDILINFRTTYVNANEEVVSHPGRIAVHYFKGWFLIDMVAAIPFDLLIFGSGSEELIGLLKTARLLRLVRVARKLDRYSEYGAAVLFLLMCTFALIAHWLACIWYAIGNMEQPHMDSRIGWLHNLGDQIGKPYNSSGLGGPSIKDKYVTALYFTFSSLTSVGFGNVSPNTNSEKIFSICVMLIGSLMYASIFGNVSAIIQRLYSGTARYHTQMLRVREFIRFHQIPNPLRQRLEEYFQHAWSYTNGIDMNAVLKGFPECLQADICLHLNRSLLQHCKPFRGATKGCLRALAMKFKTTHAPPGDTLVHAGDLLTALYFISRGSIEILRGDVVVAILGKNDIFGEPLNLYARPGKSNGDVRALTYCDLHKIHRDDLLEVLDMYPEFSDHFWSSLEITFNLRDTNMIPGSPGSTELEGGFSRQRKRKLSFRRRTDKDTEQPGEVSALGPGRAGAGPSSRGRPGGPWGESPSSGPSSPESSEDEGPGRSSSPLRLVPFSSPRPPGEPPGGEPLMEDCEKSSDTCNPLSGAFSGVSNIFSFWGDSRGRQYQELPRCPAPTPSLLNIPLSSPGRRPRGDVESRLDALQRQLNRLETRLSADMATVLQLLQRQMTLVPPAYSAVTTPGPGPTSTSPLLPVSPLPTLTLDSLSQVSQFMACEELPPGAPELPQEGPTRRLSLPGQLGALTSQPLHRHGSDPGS

Cl.N=C(N)N/N=C/c1ccc(-c2ccc(/C=N/Nc3ccc(Cl)cc3)cc2)cc1 [Compound 7Ad, (E)-2-((4′-((E)-(2-(4-Chlorophenyl)hydrazono)methyl)-[1,1′-biphenyl]-4-yl)methylene)hydrazine-1-carboximidamide monohydrochloride]
melting point: > 380 °C | MIC (A. baumannii ATCC 19606; converted from μM): > 214 µg/mL | MIC (A. baumannii ATCC 19606; range 0.5 to 500 μM): > 500 µM

Cl.Cl.N=C(N)N/N=C/c1ccc(-c2cccc(/C=N/NC(=N)N)c2)cc1 [Compound 3B, (2E,2′E)-2,2′-([1,1′-Biphenyl]-3,4′-diylbis(methanylylidene))bis(hydrazine-1-carboximidamide) dihydrochloride]
MIC (A. baumannii ATCC 19606; converted from μM): > 198 µg/mL | MIC (A. baumannii ATCC 19606; range 0.5 to 500 μM): > 500 µM

Cl.N=C(N)N/N=C/c1ccc(-c2ccc(/C=N/Nc3ccc(F)cc3F)cc2)cc1 [Compound 7Af, (E)-2-((4′-((E)-(2-(2,4-Difluorophenyl)hydrazono)methyl)-[1,1′-biphenyl]-4-yl)methylene) hydrazine-1-carboximidamide, monohydrochloride]
melting point: > 380 °C | MIC (A. baumannii ATCC 19606; converted from μM): > 214 µg/mL | MIC (A. baumannii ATCC 19606; range 0.5 to 500 μM): > 500 µM

Cl.N=C(N)N/N=C/c1ccc(-c2ccc(C=NNc3ccccc3Cl)cc2)cc1 (mixture of isomers) [Compound 7Aa, E)-2-((4′-((E and Z)-(2-(2-Chlorophenyl)hydrazono)methyl)-[1,1′-biphenyl]-4-yl)methylene)hydrazine-1-carboximidamide monohydrochloride]
development of resistance (passages after which resistance developed) [1]: did not develop resistance | development of resistance (passages after which resistance developed) (VRE (strain D)): did not develop resistance | development of resistance (passages after which resistance developed) [2]: twelve | IC50 at 60 min (hERG channel): 1140 ± 267 nM | development of resistance (passages after which resistance developed) (MRSA (strain C)): twelve | MIC (A. baumannii ATCC 19606; converted from μM): > 215 µg/mL | MIC (A. baumannii ATCC 19606; range 0.5 to 500 μM): > 500 µM | intracellular ROS production (C. albicans ATCC 10231 [3]): significantly increased intracellular ROS production | development of drug resistance (C. albicans ATCC 10231 [4]): unable to develop drug resistance
